According to patent US10093642B2, “Multitarget hedgehog pathway inhibitors and uses thereof” (UNIVERSITA' DEGLI STUDI DI SIENA, priority 2013, dated 2018):
Entries after “also recorded” stand apart in the source; their conditions may differ.

Assays:
SMO receptor = target: T1, SMO receptor (UniProt P56726); test: Displacement assay with Bodipy-cyclopamine in HEK293 cells transfected with SMO; conditions: BC 5 nM, 2 h at 37° C., read-out: IC50 of blocking Bodipy-cyclopamine (BC) binding to SMO
T1 construct: fused on or other part: Possibly a C-terminal Myc3 tag, if the construct is Smo-Myc3 of Chen et al. 2002
Procedure: (A) HEK293 cells were transiently transfected with pcDNA-SMO vector and incubated with Bodipy-cyclopamine (BC 5 nM) alone (control) or in the presence of increasing concentrations of KAAD (Cyclopamine-KAAD, Smoothened antagonist) or increasing concentrations of Glabrescione B, as indicated. Bodipy-cyclopamine binding (BC binding) (green) is visualized using fluorescence microscopy in a representative field. (B) The concentration-response curve for Glabrescione B was obtained by quantification of the Bodipy-cyclopamine fluorescence in three photographs for each coverslip. The values are expressed as a percentage of the fluorescence detected in control HEK293 cells incubated with Bodipy-cyclopamine alone. The data shown are the means of triplicates derived from a representative experiment of three. Error bars indicate SD (standard deviation). […]
To investigate the binding properties of Glabrescione B to SMO receptor, a competition assay was carried out. In this experiment it was analyzed whether Glabrescione B could compete with Bodipy-cyclopamine (BC; 5 nM USBiological, cat. # B2527), a fluorescent derivative of cyclopamine, which is known to interact with the SMO receptor at the level of its heptahelical bundle. […] Cells were analyzed with a Carl Zeiss microscope (Axio Observer ZI). […] Bodipy-cyclopamine (green) and DAPI (blue) signals were analyzed in 3-4 representative fields for coverslips.

[1] = tested on: Hh pathway (Gli-RE reporter, activated by SMO agonist SAG); test: Gli-luciferase reporter assay in SAG-treated NIH 3T3 Shh-light II cells; assay type: cell-based
Procedure: FIG. 4. Effect of active natural compounds identified by the pharmacophore screening in a luciferase assay, where the gene reporter was Gli1 and the pathway was activated by the SAG molecule, a potent SMO agonist. Natural compounds were tested at three different concentrations (1, 10 and 20 μM) and their activity was compared to that of cyclopamine, the natural compound reference inhibitor of the Hedgehog pathway, which was tested at the same doses (1, 10 and 20 μM). On both graphs the activity of cyclopamine is reported as reference standard. (A) cyclopamine, 2,4,5,3′,4′-penta-Ome chalcone and Auriculasin; (B) cyclopamine, Martinoside, Jaceidin, 2,4,5,3′,4′-penta-Ome chalcone, 3,4-di-MDO-2′,4′,5′-tri-Ome dihydrochalcone.
FIG. 6. Dose-response curve of Glabrescione B in SAG (Smoothened Agonist, 200 nM) treated NIH 3T3 Shh-light II (Shh-LII) cells. Treatment time was 48 h and normalization was against Renilla luciferase. Shown is the fold increase of Hh reporter activity compared with cells not treated with SAG.
FIG. 19. Effect of derivatives NT8, NT9, NT10, NT11, NT12, NT13, NT14 and NT15 on the Hedgehog pathway, measured at 5 μM dose in a luciferase assay where the gene reporter was Gli1 and the pathway was activated by the SAG molecule, a potent SMO agonist. […]
To investigate the inhibitory properties of Glabrescione B on Hh signaling, the inventors examined its effects in NIH 3T3 Shh-light II (Shh-LII) cells stably incorporating an Hh-responsive (Gli-RE) reporter, in which induction of the pathway occurs following treatment with the SMO agonist SAG. […] The IC50 in this assay was 0.8 μM.
The ability of Glabrescione B to suppress Hh signaling was assessed in a cellular context of Hh pathway induction. To this end, the antagonist properties of Glabrescione B were determined in Shh Light II (ATCC, cat. # CRL-2795), a murine fibroblast NIH 3T3 cell line. These cells, stably incorporating the Gli-luc reporter and the pRL-TK Renilla reniformis (as described in Taipale, Chen et al. 2000) are a standard tool used to assay Hh pathway activity. The cells that reached the confluence were treated for 48 h with the SMO agonist SAG (200 nM, Alexis, cat. #ALX-270-426-M001) in absence or in presence of Glabrescione B at the amount indicated in FIG. 6. […] Control cells were treated with only DMSO (0.5%, SERVA, cat. #39757.02) Determination of luciferase activities was carried out using the Dual-Luciferase assay according to manufacturer's instructions (Dual-Luciferase® Reporter assay system; Promega, cat. # E1980). All presented data are firefly luciferase activity reported to the Renilla control activity. […] IC50 of 0.8 μM, represents the concentration of Glabrescione B necessary to have fifty percent of inhibition.
Evaluation of the Hh inhibitory activity of these molecules at 5 μM was preliminarily conducted in vitro on Shh Light II cells (see example 2).

[2] = tested on: ASZ001 basal cell carcinoma cells; test: ASZ001 BCC cell growth, cell death and Gli1 mRNA; assay type: cell-based; conditions: in vitro treatment
Procedure: FIG. 15. Inhibition of Gli-dependent BCC tumor cell growth. ASZ001 BCC cells were treated with Glabrescione B (GlaB) 5 μM or DMSO only (A) or with Glabrescione B 1, 5 and 10 μM (GlaB) or DMSO only (B). After the indicated times, a trypan blue count was performed to determine the growth rate (A) or the percentage of cell death (B). (C) Gli1 mRNA expression levels were determined by qRT-PCR after treatment of ASZ001 BCC cells with Glabrescione B (GlaB) or DMSO only for the indicated times. Results are expressed in arbitrary units as relative quantification normalized with endogenous control β2-microglobulin and HPRT. […] Error bars indicate SD. *P<0.05 vs DMSO.
Total RNA was isolated with Trizol (Invitrogen, Eugene, Or, USA) and reverse transcribed with Superscript II reverse transcriptase and random hexamers (Invitrogen, Eugene, Or, USA). Quantitative real-time PCR (qRT-PCR) analysis of Gli1, Gli2, Ptch1, Ptch2, Nanog, Oct-4, Cyclin D1, Cyclin D2, Nmyc, HIP1, Sfrp1, Bmp2, IGF2, β-2 microglobulin, HPRT, mRNA expression was performed on each cDNA sample using the ABI Prism 7900HT Sequence Detection System employing Assay-on-Demand Reagents (Applied Biosystems, Foster City, Calif., USA). […]

GST = GST (Schistosoma japonicum, UniProt P08515); test: NMR relaxation speed of Glabrescione B protons in presence of GST alone; assay type: binding; conditions: 0.412 mM
Sequence of GST (P08515 whole entry): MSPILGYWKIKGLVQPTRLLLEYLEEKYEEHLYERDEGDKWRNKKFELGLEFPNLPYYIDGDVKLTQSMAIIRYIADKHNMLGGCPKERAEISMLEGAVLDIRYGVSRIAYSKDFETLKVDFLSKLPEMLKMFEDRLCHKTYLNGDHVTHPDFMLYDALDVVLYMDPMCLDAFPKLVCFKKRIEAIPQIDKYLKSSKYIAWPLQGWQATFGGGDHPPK

In the case of `COc1cc(OC)c2c(=O)c(-c3ccc(OCC=C(C)C)c(OCC=C(C)C)c3)coc2c1` [Glabrescione B, 3-(3′,4′-bis(3-methylbut-2-enyloxy)phenyl)-5,7-dimethoxy-4H-chromen-4-one], the IC50 (SMO receptor) is reported as 1 µM, the “effect on Hh pathway in luciferase assay” value ([1]; Gli1 gene reporter, pathway activated by SAG, cyclopamine as reference) is reported as “inhibit the Hh pathway; also recorded: most potent lead” and the IC50 ([1]; Mus musculus, SAG 200 nM, 48 h, normalized to Renilla, read-out: IC50 of luciferase reporter activity (Hh signaling)) is reported as 0.8 µM. For the same compound, the inhibition at 5 µM ([1]; Mus musculus, at 5 μM, highly active class) was > 50%, the BCC cell proliferation [2] was “impaired” and the “Gli1 mRNA in BCC cells” value ([2]; qRT-PCR) was “suppression of Gli1 mRNA”. The “Normalized relaxation speed ΔR/Rf, GlaB:GST 1:150” value (from here on “Normalized relaxation speed ΔR/Rf”) (GST; proton 1) was 0.024, the “Normalized relaxation speed ΔR/Rf” value (GST; proton 2′) was 0.058 and the “Normalized relaxation speed ΔR/Rf” value (GST; proton 3) was 0.100. The “Normalized relaxation speed ΔR/Rf” value (GST; proton 4′) was 0, the “Normalized relaxation speed ΔR/Rf” value (GST; proton 8) was 0 and the “Normalized relaxation speed ΔR/Rf” value (GST; proton 12) was 0.034. The “Normalized relaxation speed ΔR/Rf” value (GST; proton 15) was 0.138 and the “Normalized relaxation speed ΔR/Rf” value (GST; proton 19) was 0.
